Laboratory results from ChEMBL document CHEMBL1201862, “PubChem BioAssay data set” (2004).
Calls of active or inactive are those of the source.

Experiments:
[1] = Luminescence-based counterscreen assay for KLF5 inhibitors: dose response cell-based high throughput screening assay to identify cytotoxic compounds using the IEC-6 intestinal epithelial cell line. [Related pubchem assays: 1700 (Primary screen.), 1834 (Confirmation screen.), 1858 (Summary AID.), 1905 (Counterscreen.)]; assay type: functional
[2] = cells; assay type: functional, cell-based
[3] = target: T1, Nuclear receptor subfamily 0 group B member 1 (Homo sapiens, UniProt P51843); assay type: functional, cell-based;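 also: HEK293T cells transfected with SF-1 and DAX-1 plus StAR promoter luciferase reporter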
T1 sequence (P51843 whole entry): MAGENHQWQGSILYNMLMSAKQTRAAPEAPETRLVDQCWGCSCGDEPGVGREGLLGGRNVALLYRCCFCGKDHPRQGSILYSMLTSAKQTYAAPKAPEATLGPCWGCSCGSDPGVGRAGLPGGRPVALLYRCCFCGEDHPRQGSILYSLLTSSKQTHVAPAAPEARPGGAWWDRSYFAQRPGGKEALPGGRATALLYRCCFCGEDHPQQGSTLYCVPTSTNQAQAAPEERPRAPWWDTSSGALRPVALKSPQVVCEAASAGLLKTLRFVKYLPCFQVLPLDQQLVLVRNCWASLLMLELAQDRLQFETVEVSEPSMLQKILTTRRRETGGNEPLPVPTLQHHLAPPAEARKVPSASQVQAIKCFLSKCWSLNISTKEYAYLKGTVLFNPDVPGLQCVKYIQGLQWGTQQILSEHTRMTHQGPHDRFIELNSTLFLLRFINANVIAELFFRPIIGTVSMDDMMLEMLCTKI

[4] = target: T2, Oxysterols receptor LXR-beta (Homo sapiens, UniProt P55055); assay type: functional, cell-based;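 also: Cell-based luminescence dose-response assay of agonist activity at LXR, run as a confirmatory counterscreen to a daf-12 agonist screen; HEK293 cells with Gal4-LXR fusion and GAL4-driven luciferase reporter; agonist potency from rising luciferase signal of a Gal4-LXR reporter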
T2 sequence (P55055 whole entry): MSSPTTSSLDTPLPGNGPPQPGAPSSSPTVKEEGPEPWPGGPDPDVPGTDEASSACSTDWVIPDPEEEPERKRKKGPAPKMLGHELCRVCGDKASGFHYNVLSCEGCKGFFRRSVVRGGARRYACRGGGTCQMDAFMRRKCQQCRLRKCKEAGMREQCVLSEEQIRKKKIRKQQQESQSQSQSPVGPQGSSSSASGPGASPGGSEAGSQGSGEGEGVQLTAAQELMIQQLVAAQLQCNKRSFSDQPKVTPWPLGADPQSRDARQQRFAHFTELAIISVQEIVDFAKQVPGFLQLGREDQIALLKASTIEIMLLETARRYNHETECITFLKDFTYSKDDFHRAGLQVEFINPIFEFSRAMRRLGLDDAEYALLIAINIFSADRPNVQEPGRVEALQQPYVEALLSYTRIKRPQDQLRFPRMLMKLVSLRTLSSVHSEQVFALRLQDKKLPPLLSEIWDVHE

[5] = cells
[6] = target: Eukaryotic translation initiation factor 4E (Mus musculus, UniProt P63073); assay: eIF4E–eIF4G protein interaction inhibitors, dose response, biochemical, TR-FRET (AID 855); assay type: functional;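 also: potency for disrupting eIF4E binding to eIF4GI seen as loss of FRET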
[7] = target: T3, Caspase-3 (Homo sapiens, UniProt P42574); assay: procaspase-3 activation potency of dual hits, dose response, counter-screen for dual procaspase-3/7 activator project, biochemical, absorbance, PC-3 D3A mutant (AID 504328)
T3 sequence (P42574 whole entry): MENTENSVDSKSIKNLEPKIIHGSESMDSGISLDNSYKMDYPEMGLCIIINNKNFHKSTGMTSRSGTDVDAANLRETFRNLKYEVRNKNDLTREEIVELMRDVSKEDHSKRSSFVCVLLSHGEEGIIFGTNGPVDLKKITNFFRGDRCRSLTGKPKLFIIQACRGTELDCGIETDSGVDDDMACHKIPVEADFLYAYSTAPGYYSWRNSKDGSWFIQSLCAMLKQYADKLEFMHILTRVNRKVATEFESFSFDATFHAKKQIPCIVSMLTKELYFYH

[8] = target: T4, Caspase-7 (Homo sapiens, UniProt P55210); assay: procaspase-7 activators, dose response, dual procaspase-3/-7 activator project, biochemical, absorbance, human (AID 504330)
T4 sequence (P55210 whole entry): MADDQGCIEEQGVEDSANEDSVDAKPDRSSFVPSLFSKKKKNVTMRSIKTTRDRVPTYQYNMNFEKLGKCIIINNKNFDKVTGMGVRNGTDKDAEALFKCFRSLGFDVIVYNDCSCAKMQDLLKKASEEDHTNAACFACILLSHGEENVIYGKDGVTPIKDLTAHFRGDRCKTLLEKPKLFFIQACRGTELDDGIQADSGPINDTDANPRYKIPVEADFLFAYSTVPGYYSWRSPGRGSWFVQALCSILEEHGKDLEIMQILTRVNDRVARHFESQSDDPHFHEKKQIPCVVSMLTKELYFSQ

[9] = A cytotoxicity screen of small molecule inhibitors of the PhoP region in Salmonella typhi identified in the primary screen. [Related pubchem assays: 1850, 1864, 1985 ]; assay type: functional
[10] = target: X-box-binding protein 1 (Homo sapiens, UniProt P17861); assay type: functional, Cricetulus griseus;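 also: confirmatory dose-response counter-screen serving a CHOP assay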
[11] = target: Delta-type opioid receptor (Homo sapiens, UniProt P41143); assay: Counterscreen for agonists of heterodimerization of the mu 1 (OPRM1) and delta 1 (OPRD1) opioid receptors: Luminescence-based cell-based high throughput dose response assay to identify agonists of OPRD1 homodimerization. [Related pubchem assays (depositor defined):AID504326, AID504355, AID504692, AID504904, AID504905]; assay type: functional
[12] = target: Mu-type opioid receptor (Homo sapiens, UniProt P35372); assay: Counterscreen for agonists of heterodimerization of the mu 1 (OPRM1) and delta 1 (OPRD1) opioid receptors: Luminescence-based cell-based high throughput dose response assay to identify agonists of OPRM1 homodimerization.; assay type: functional;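 also: U2OS cells expressing OPRM1 and beta-arrestin as split beta-galactosidase partners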
[13] = target: 5-hydroxytryptamine receptor 5A (Homo sapiens, UniProt P47898); assay: Counterscreen for agonists of OPRM1-OPRD1 heterodimerization: luminescence-based cell-based high throughput dose response assay to identify agonists of 5-hydroxytryptamine (serotonin) 5A receptor (HTR5A). [Related pubchem assays (depositor defined):AID504326, AID504355, AID504692, AID504904, AID504905]; assay type: functional
[14] = target: Melanin-concentrating hormone receptor 1 (Homo sapiens, UniProt Q99705); assay: Late-stage fluorescence-based counterscreen for antagonists of the G-protein coupled receptor 7 (GPR7): cell-based dose response assay to identify antagonists of the melanin-concentrating hormone receptor 1 (MCHR1). [Related pubchem assays (depositor defined):AID1861, AID1880, AID1952, AID2148, AID2251, AID2257, AID485339]; assay type: functional;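 also: stimulated with 30 nM MCH peptide agonist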
[15] = target: T5, Neuropeptides B/W receptor type 1 (Homo sapiens, UniProt P48145); assay: GPR7 antagonist potency, late-stage follow-up, cell-based, fluorescence, dose response (AID 463251); assay type: functional
T5 sequence (P48145 whole entry): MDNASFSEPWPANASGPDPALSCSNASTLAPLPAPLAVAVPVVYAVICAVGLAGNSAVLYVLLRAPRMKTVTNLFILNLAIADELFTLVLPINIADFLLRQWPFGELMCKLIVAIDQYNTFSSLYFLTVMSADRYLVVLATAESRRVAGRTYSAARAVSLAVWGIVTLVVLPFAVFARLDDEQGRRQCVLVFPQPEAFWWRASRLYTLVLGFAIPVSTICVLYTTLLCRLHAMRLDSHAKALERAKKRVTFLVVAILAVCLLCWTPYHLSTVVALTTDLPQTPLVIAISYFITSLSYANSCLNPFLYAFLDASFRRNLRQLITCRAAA

[16] = system: BJ; assay: cytotoxicity toward BJ-TERT fibroblasts, dose response, cell-based, RAS-independent, luminescence (AID 1933); assay type: functional; conditions: Homo sapiens
[17] = system: BJ; assay: cells; assay type: functional, cell-based; conditions: Homo sapiens
[18] = target: Luciferin 4-monooxygenase (Photinus pyralis, UniProt P08659); assay: firefly luciferase enzyme inhibitors, dose response, biochemical, luminescence (AID 1891)
[19] = Luminescence Cell-Based Dose Confirmation HTS to Identify Inhibitors of Platelet Dense Granule Release. [Related pubchem assays: 1663 (Primary HTS), 1678 (Summary of Project)]; assay type: functional
[20] = system: BJ; assay: cytotoxicity toward BJ-TERT-LT-ST fibroblasts, dose response, cell-based, RAS-independent, luminescence (AID 1935); assay type: functional; conditions: Homo sapiens;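 also: BJ fibroblasts immortalized with TERT plus LT and ST oncogenes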
[21] = cytotoxicity toward DRD oncogenic fibroblasts, dose response, cell-based, non-viral oncogenic, luminescence (AID 1934); assay type: functional; conditions: Homo sapiens
[22] = target: Glyceraldehyde-3-phosphate dehydrogenase (Homo sapiens, UniProt P04406)
Glyceraldehyde-3-phosphate dehydrogenase, sequence (P04406 whole entry): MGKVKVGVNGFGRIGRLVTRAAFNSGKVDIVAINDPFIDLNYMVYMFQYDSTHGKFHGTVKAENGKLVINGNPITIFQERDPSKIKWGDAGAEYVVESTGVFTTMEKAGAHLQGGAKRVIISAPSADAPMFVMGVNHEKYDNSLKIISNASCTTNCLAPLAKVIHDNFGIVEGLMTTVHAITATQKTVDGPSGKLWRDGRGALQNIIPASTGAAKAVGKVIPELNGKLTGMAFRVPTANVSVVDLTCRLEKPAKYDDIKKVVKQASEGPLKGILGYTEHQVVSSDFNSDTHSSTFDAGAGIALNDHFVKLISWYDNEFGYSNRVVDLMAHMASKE

Melanin-concentrating hormone receptor 1, sequence (Q99705 whole entry): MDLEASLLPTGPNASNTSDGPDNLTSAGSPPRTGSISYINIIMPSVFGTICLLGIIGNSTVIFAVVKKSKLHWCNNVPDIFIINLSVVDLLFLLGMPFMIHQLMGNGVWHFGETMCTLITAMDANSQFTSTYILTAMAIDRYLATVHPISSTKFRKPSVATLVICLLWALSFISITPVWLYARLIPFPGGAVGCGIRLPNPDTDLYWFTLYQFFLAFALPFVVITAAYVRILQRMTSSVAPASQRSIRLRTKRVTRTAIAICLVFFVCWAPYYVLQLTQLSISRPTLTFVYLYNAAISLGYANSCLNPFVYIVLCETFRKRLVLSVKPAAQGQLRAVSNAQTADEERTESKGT
X-box-binding protein 1, sequence (P17861 whole entry): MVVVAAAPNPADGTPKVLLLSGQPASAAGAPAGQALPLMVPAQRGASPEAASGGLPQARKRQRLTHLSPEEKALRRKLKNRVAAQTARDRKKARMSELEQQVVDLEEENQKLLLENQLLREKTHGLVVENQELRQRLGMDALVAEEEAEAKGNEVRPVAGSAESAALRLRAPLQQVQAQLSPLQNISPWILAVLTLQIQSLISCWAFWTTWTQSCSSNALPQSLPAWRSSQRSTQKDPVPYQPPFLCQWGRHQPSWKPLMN
5-hydroxytryptamine receptor 5A, sequence (P47898 whole entry): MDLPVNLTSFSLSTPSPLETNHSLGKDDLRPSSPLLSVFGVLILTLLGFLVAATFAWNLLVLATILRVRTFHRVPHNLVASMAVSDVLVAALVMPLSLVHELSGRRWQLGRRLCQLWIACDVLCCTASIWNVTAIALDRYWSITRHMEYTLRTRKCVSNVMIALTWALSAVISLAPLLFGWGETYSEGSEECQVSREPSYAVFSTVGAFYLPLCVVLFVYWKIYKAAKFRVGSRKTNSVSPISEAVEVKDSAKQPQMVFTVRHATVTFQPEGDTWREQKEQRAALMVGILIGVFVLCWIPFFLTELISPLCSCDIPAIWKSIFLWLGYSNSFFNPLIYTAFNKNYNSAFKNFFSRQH
Delta-type opioid receptor, sequence (P41143 whole entry): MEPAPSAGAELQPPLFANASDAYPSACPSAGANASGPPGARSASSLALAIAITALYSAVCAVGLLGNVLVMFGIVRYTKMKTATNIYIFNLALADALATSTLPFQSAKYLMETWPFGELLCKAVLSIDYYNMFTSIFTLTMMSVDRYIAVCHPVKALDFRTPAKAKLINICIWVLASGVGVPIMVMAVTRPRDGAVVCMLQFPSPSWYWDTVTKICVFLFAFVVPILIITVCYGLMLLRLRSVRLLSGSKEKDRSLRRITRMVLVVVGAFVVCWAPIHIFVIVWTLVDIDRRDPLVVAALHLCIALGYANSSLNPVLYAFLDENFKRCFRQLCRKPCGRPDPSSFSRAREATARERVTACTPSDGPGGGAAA
Mu-type opioid receptor, sequence (P35372 whole entry): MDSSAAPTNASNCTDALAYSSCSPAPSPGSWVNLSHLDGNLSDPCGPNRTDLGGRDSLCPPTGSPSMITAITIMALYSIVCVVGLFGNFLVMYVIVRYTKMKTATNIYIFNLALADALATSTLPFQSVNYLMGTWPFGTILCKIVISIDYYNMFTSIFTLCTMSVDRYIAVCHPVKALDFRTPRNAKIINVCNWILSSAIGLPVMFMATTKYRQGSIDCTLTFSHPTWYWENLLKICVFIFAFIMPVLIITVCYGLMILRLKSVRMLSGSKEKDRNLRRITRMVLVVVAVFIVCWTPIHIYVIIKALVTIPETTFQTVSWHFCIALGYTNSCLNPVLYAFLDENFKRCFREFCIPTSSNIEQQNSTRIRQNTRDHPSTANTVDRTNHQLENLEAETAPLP
Luciferin 4-monooxygenase, sequence (P08659 whole entry): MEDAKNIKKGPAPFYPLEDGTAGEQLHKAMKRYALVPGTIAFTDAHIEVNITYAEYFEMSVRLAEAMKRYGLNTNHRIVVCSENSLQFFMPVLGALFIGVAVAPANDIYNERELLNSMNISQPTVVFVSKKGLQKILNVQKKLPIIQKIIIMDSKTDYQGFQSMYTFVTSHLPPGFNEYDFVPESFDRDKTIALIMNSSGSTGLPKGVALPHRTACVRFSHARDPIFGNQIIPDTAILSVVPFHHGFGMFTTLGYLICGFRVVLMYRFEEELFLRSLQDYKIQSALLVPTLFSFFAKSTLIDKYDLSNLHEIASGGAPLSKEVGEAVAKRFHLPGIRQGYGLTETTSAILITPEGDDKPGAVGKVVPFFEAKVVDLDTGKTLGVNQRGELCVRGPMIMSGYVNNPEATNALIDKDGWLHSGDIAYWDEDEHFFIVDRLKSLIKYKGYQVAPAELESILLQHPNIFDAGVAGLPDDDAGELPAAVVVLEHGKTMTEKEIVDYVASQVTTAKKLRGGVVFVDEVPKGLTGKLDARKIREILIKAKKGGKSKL
Eukaryotic translation initiation factor 4E, sequence (P63073 whole entry): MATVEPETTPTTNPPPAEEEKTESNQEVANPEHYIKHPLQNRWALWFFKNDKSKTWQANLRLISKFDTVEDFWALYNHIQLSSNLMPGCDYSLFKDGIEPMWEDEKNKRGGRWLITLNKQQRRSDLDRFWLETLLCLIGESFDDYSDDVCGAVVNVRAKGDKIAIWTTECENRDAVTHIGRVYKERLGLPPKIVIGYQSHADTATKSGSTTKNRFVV

For `CCc1ccc(NC(=O)c2cnn3ccccc23)cc1`, the IC50 [1] was > 39.8 µM (not active), the IC50 [2] was > 67.5 µM (inactive) and the IC50 [3] was > 0.0926 µM (active). The EC50 [4] was > 67.5 µM (inactive) and the EC50 [5] was > 67.5 µM (inactive).
With `CCOc1ccc(-n2c(-c3ccco3)n[nH]c2=S)cc1` the IC50 [6] was > 64 µM (inactive).
For `O=C(Nc1ccc(Cc2ccncc2)cc1)C1CCC(N2C(=O)C3C4C=CC(C5CC45)C3C2=O)CC1` (stereo unspecified), the EC50 [7] was > 85.3 µM (inactive) and the EC50 [8] was > 85.3 µM (inactive).
With `COCCn1c(SCC(=O)Nc2nnc(C)s2)nnc1-c1c[nH]c2ccccc12` the EC50 [9] was > 50 µM (active).
For `COc1cc(C(=O)OC(C)C(=O)NCC2CCCCC2)cc(NC(=O)c2ccco2)c1OC` (stereo unspecified), the “Absolute IC50 (XBP1)” value [10] was 10 µM, the EC50 [11] was > 92.5 µM (inactive) and the EC50 [12] was > 92.5 µM (inactive). For the same compound, the EC50 [13] was > 92.5 µM (inactive).
For `Cc1cc(C)c2nc(N=C(N)NC(=O)c3ccccc3)nc(C)c2c1`, the EC50 [9] was > 50 µM (active).
With `O=C(C1CCCCN1Cc1c(F)cccc1Cl)N1CCN(c2ccc([N+](=O)[O-])cc2)CC1` (stereo unspecified) the IC50 [14] was 3.3 µM (active) and the IC50 [15] was 3.3 µM (active).
For `O=c1c(Oc2ccc(O)cc2)c(Cl)cnn1-c1ccc(F)cc1`, the IC50 [14] was 8 µM (active) and the IC50 [15] was 8.7 µM (active).
With `CN(CCO)c1ccc(/C=N/Nc2nncc3ccccc23)cc1` the EC50 [16] was > 150 µM (not active), the EC50 [17] was 10.8 µM (active) and the EC50 [18] was 0.67 µM (active). The EC50 [19] was 0.533 µM (active), the IC50 [1] was 24.7 µM (not active) and the EC50 [20] was > 150 µM (not active). The EC50 [21] was 4.01 µM (active).
In the case of `CC(C)CNC(=O)c1cc(-c2ccc(Cl)cc2Cl)n[nH]1`, the IC50 [22] is reported as > 10 µM (inconclusive).
